Values quoted from earlier work as cited in patent US20080008772A1, “Narcotic biphasic release compositions and methods for treatment of coughing, sneezing, rhinorrhea, and/or nasal obstruction” (Everett Laboratories, Inc., priority 2006, published 2008).

Columns and labels:
[1] = in vivo

COc1ccccc1OCC(O)CO (centres unmarked) [Guaifenesin, 3-(2-methoxyphenoxy)-1,2 propanediol]
plasma half life [1]: one

COc1ccc2c3c1O[C@H]1C(=O)CC[C@H]4[C@@H](C2)N(C)CC[C@]314.COc1ccc2c3c1O[C@H]1C(=O)CC[C@H]4[C@@H](C2)N(C)CC[C@]314.O.O.O.O.O.O=C(O)C(O)C(O)C(=O)O.O=C(O)C(O)C(O)C(=O)O [Hydrocodone bitartrate, 4,5a-epoxy-3-methoxy-17-methylmorphinan-6-one tartrate (1:1)hydrate (2:5)]
sedative action (at equi-effective doses, versus codeine): greater than codeine

COc1ccc2c3c1O[C@H]1C(=O)CC[C@H]4[C@@H](C2)N(C)CC[C@]314 [hydrocodone, 4,5α-epoxy-3-methoxy-17-methylmorphinan-6-one]
analgesic effects (at therapeutic antitussive doses): does exert analgesic effects
effects on the cardiovascular system (therapeutic doses): insignificant
constipation effects (versus morphine and codeine): much weaker than that of morphine and no stronger than that of codeine
